Test results taken from patent publication US11214803B2, “Modulators of YAP1 expression” (Ionis Pharmaceuticals, Inc., priority 2019, dated 2022).
Strand notation (5' to 3'): a small letter for the sugar, then the base; units joined by * are phosphorothioate-linked, units joined directly phosphodiester-linked; [ ] holds rarer units or linkages, { } end groups; capitals alone tell only the bases. k = constrained ethyl (cEt); [5mC] = 5-methylcytosine; d = 2'-deoxy (DNA)

Test system: Yap1 mRNA
Assay: Antisense inhibition of human Yap1 in A-431 cells by cEt gapmers, single dose (Example 1, RTS4814)
Assay type: cell-based
Conditions: A-431 cells, 5,000 cells per well, free uptake, 2,000 nM modified oligonucleotide, approx. 48 hours, RTS4814, normalized to RIBOGREEN; Table 3
Protocol: Modified oligonucleotides were designed to target a Yap1 nucleic acid and were tested for their effect on Yap1 mRNA level in vitro. The modified oligonucleotides were tested in a series of experiments that had similar culture conditions. Cultured A-431 cells at a density of 5,000 cells per well were treated using free uptake with 2,000 nM of modified oligonucleotide. After a treatment period of approximately 48 hours, RNA was isolated from the cells and Yap1 mRNA levels were measured by quantitative real-time RTPCR. Human primer probe set RTS4814 (forward sequence […], designated herein as SEQ ID NO.: 11; reverse sequence […], designated herein as SEQ ID NO.: 12; probe sequence […], designated herein as SEQ ID NO.: 13) was used to measure mRNA levels. Yap1 mRNA levels were normalized to total RNA content, as measured by RIBOGREEN®. Results are presented in the tables below as percent control of the amount of Yap1 mRNA relative to untreated control cells (% UTC). The modified oligonucleotides with percent control values marked with an asterisk (*) target the amplicon region of the primer probe set. Additional assays may be used to measure the potency and efficacy of the modified oligonucleotides targeting the amplicon region.
The newly designed modified oligonucleotides in the Tables below were designed as 3-10-3 cEt gapmers. The gapmers are 16 nucleosides in length, wherein the central gap segment comprises of ten 2′-deoxynucleosides and is flanked by wing segments on the 5′ direction and the 3′ direction comprising three nucleosides each. Each nucleoside in the 5′ wing segment and each nucleoside in the 3′ wing segment has a cEt sugar modification. The internucleoside linkages throughout each gapmer are phosphorothioate (P═S) linkages. All cytosine residues throughout each gapmer are 5-methylcytosines.
“Start site” indicates the 5′-most nucleoside to which the gapmer is targeted in the human gene sequence. “Stop site” indicates the 3′-most nucleoside to which the gapmer is targeted human gene sequence. […] Activity of the modified oligonucleotide may be defined in a different experiment.

Substance | YAP1 (% UTC)
715417 (kG*kA*kG*d[5mC]*dT*d[5mC]*dG*dA*dA*d[5mC]*dA*dT*dG*k[5mC]*kT*kG; antisense) [Compound 715417] | 104
715615 (antisense k[5mC]*kG*kG*dA*dT*dA*dA*dA*dA*dA*dT*dT*dA*k[5mC]*kT*kT) [Compound 715615] | 94
715471 (antisense kT*kA*kT*d[5mC]*dT*dA*dG*d[5mC]*dT*dT*dG*dG*dT*kG*kG*k[5mC]) [Compound 715471] | 36
715570 (kG*k[5mC]*k[5mC]*dA*dA*dA*dG*dG*dT*dA*dG*dG*dA*kT*kA*kA; antisense) [Compound 715570] | 79
715552 (kA*kA*kA*dT*dA*dG*dG*dA*dA*dG*dT*dT*dG*kT*kT*kG; antisense) [Compound 715552] | 86
715546 (kT*kG*kA*d[5mC]*d[5mC]*dA*dA*d[5mC]*dT*dA*d[5mC]*dT*dT*kG*kA*kA; antisense) [Compound 715546] | 59
715492 (antisense kG*k[5mC]*kT*dA*dG*d[5mC]*dT*dG*dG*dT*dG*d[5mC]*d[5mC]*kA*k[5mC]*kT) [Compound 715492] | 76
715429 (k[5mC]*k[5mC]*kT*dG*dA*dG*dT*d[5mC]*dA*dT*dG*dG*d[5mC]*kT*kT*kG; antisense) [Compound 715429] | 62
715594 (antisense kA*kT*kA*dT*dT*dT*d[5mC]*dT*dT*dT*dG*dG*d[5mC]*kA*kG*kA) [Compound 715594] | 39

Same assay, conditions: Table 1; A-431 cells, free uptake, 2,000 nM, approximately 48 hours, RTS4814; Yap1 mRNA relative to untreated control cells

Substance | YAP1 (% UTC)
715607 (antisense kT*k[5mC]*kA*d[5mC]*d[5mC]*dA*dT*dA*dG*d[5mC]*dA*d[5mC]*dA*kG*kA*kA) [Compound 715607] | 116
715595 (antisense kT*k[5mC]*kA*dT*dG*dG*d[5mC]*dT*dG*dA*dA*dA*dT*kG*kA*kA) [Compound 715595] | 104
715406 (k[5mC]*kT*kT*dG*dA*dA*dG*dA*dA*dG*dG*dA*dG*kT*k[5mC]*kG; antisense) [Compound 715406] | 58
715427 (k[5mC]*k[5mC]*kA*dT*d[5mC]*d[5mC]*dA*dT*d[5mC]*dA*dG*dG*dA*kA*kG*kA; antisense) [Compound 715427] | 90
715520 (kT*kT*k[5mC]*dT*dT*dT*d[5mC]*d[5mC]*dA*d[5mC]*dT*d[5mC]*dA*kA*kG*kT; antisense) [Compound 715520] | 122
715517 (kG*kG*k[5mC]*d[5mC]*dT*dA*dT*dG*dA*dG*dT*d[5mC]*dA*kA*k[5mC]*k[5mC]; antisense) [Compound 715517] | 109
715418 (kA*kG*kT*dG*dT*d[5mC]*d[5mC]*d[5mC]*dA*dG*dG*dA*dG*kA*kA*kA; antisense) [Compound 715418] | 126
715559 (k[5mC]*kT*kG*d[5mC]*d[5mC]*dA*dT*dT*dT*dA*dA*dG*dA*kA*kA*kT; antisense) [Compound 715559] | 114
715580 (kG*k[5mC]*k[5mC]*dT*dG*dT*d[5mC]*dT*dG*dG*dA*dA*dT*kA*k[5mC]*kA; antisense) [Compound 715580] | 101
715601 (antisense kA*kG*kA*dA*dT*dT*d[5mC]*d[5mC]*d[5mC]*dA*dA*dG*d[5mC]*kT*kA*k[5mC]) [Compound 715601] | 106
715466 (antisense k[5mC]*kA*kA*dG*dG*dT*d[5mC]*d[5mC]*dA*d[5mC]*dA*dT*dT*kT*kG*kT) [Compound 715466] | 83
715430 (kA*kT*k[5mC]*d[5mC]*dT*dG*dA*dG*dT*d[5mC]*dA*dT*dG*kG*k[5mC]*kT; antisense) [Compound 715430] | 118
715541 (k[5mC]*kT*kT*dG*dA*dA*dG*dA*dA*d[5mC]*dT*dA*dT*kT*kT*k[5mC]; antisense) [Compound 715541] | 105
715616 (antisense kG*kA*k[5mC]*dG*dG*dA*dT*dA*dA*dA*dA*dA*dT*kT*kA*k[5mC]) [Compound 715616] | 95
715535 (k[5mC]*kT*kA*dT*dT*dA*dA*dG*d[5mC]*dT*dG*dT*dT*kT*kA*kA; antisense) [Compound 715535] | 91
715478 (antisense kA*k[5mC]*k[5mC]*dA*dT*dT*dA*dT*dT*dA*d[5mC]*dT*d[5mC]*k[5mC]*kT*kG) [Compound 715478] | 7

Same assay, conditions: Table 2; A-431 cells, free uptake, 2,000 nM, approximately 48 hours, RTS4814; Yap1 mRNA relative to untreated control cells

Substance | YAP1 (% UTC)
715506 (antisense kA*kA*kA*dT*dT*dG*dG*dT*dT*dT*dA*dT*dT*kG*kT*kA) [Compound 715506] | 112
715602 (antisense kA*k[5mC]*kA*dG*dA*dA*dT*dT*d[5mC]*d[5mC]*d[5mC]*dA*dA*kG*k[5mC]*kT) [Compound 715602] | 110
715431 (k[5mC]*k[5mC]*kA*dT*d[5mC]*d[5mC]*dT*dG*dA*dG*dT*d[5mC]*dA*kT*kG*kG; antisense) [Compound 715431] | 99
715632 (antisense kA*kT*k[5mC]*d[5mC]*dA*dA*dT*dT*dA*dT*dG*dT*d[5mC]*k[5mC]*k[5mC]*kA) [Compound 715632] | 109
715434 (antisense kT*k[5mC]*kT*dT*dG*dT*dT*d[5mC]*dT*dT*dA*dT*dG*kG*kT*kT) [Compound 715434] | 31
715620 (antisense kA*kA*kA*dA*dA*dT*dA*dA*dG*dA*d[5mC]*dG*dG*kA*kT*kA) [Compound 715620] | 111
715413 (k[5mC]*kA*kT*dG*d[5mC]*dT*dG*dT*dG*dG*dA*dG*dT*k[5mC]*kA*kG; antisense) [Compound 715413] | 96
715527 (kT*k[5mC]*kA*d[5mC]*dT*dT*dA*d[5mC]*dT*dT*dT*dA*dA*kG*kA*kA; antisense) [Compound 715527] | 111
715428 (kT*k[5mC]*k[5mC]*d[5mC]*dA*dT*d[5mC]*d[5mC]*dA*dT*d[5mC]*dA*dG*kG*kA*kA; antisense) [Compound 715428] | 106
715575 (k[5mC]*k[5mC]*kT*dT*dT*dA*d[5mC]*d[5mC]*dA*dA*dA*dA*d[5mC]*kG*kA*kG; antisense) [Compound 715575] | 134
715446 (antisense kA*kT*kT*d[5mC]*d[5mC]*dT*dG*dA*dG*dA*d[5mC]*dA*dT*k[5mC]*k[5mC]*k[5mC]) [Compound 715446] | 81
715542 (kT*kA*k[5mC]*dT*dT*dG*dA*dA*dG*dA*dA*d[5mC]*dT*kA*kT*kT; antisense) [Compound 715542] | 120
715467 (antisense k[5mC]*kA*kT*d[5mC]*dT*d[5mC]*d[5mC]*dT*dT*d[5mC]*d[5mC]*dA*dG*kT*kG*kT) [Compound 715467] | 77
715473 (antisense kT*k[5mC]*kT*dT*dT*dA*dT*d[5mC]*dT*dA*dG*d[5mC]*dT*kT*kG*kG) [Compound 715473] | 32
715581 (kA*kA*kG*d[5mC]*d[5mC]*dT*dG*dT*d[5mC]*dT*dG*dG*dA*kA*kT*kA; antisense) [Compound 715581] | 106
